This is an account of results in ChEMBL document CHEMBL3763068, “Recent developments of 2-aminothiazoles in medicinal chemistry” (Eur J Med Chem, 2016).

Structures are written as SMILES.

Data set [1] relates to Human immunodeficiency virus 1. Kind of data set: Antiviral activity against HIV1 3B coinfected with HTLV in human PBMC assessed as inhibition of viral p24 antigen production after 7 days by ELISA. The data set is classed as functional, organism-based. The conditions noted are these: Human immunodeficiency virus 1, 3B, 168 h.
The nature of data set [2]: Selectivity index, ratio of CC50 for human PBMC to IC50 for HIV1 3B. The data set is classed as functional.
Data set [3] in a line: Antiprion activity against […] RML PrPSc infected in mouse N2A cells after 6 days by ELISA. It counts as cell-based. The conditions noted are these: 144 h. For orientation: ELISA stands for enzyme-linked immunosorbent assay.
Data set [4] can be described thus: Drug uptake in po dosed mouse brain measured after 3 days. It counts as ADME, organism-based. Conditions: read-out: Drug uptake.
The nature of data set [5]: Cytotoxicity against human Hep3B cells assessed as growth inhibition after 48 hrs by MTT assay. The data set is classed as functional, cell-based, Hep 3B2. Background: Formazan colour is commonly taken as a measure of viable cells.
In data set [6] the target is High affinity nerve growth factor receptor (Homo sapiens, UniProt P04629). Kind of data set: Inhibition of human recombinant N-terminal His6-tagged TRKA cytoplasmic domain (residues 440).
Sequence of High affinity nerve growth factor receptor (P04629 whole entry, the tested form may be a part): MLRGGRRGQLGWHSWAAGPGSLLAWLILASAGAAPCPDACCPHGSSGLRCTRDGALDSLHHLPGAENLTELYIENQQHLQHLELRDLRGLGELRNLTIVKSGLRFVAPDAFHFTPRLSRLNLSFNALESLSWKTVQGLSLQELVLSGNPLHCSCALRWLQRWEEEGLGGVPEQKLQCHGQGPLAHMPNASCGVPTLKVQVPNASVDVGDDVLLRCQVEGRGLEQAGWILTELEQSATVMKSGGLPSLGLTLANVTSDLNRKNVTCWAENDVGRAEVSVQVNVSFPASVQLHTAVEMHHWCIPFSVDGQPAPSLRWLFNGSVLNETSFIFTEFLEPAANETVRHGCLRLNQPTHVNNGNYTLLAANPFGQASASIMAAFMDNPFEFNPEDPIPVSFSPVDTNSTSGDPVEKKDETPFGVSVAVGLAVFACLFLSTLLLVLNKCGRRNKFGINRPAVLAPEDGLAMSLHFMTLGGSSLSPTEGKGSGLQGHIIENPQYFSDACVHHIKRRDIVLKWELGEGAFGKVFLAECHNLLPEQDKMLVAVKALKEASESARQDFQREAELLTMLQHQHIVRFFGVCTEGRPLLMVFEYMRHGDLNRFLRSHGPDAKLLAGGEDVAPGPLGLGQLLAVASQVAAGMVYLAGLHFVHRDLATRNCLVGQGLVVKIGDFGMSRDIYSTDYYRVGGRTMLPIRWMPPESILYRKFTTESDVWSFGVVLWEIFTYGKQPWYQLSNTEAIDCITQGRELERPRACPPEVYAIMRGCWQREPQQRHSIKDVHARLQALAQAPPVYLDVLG

Broadly, the IC50 is the point on the concentration scale where inhibition reaches its midpoint. As to `S=C(NCc1ccco1)Nc1nccs1`, the IC50 in data set [1] is < 1 nM. In addition, the “Ratio CC50/IC50” value in data set [2] was >100000.

What is called EC50 is the midpoint of the concentration-response curve. Turning to `Cc1ccc(Nc2nc(-c3cc(-c4ccccc4)no3)cs2)nc1`, in data set [3], the EC50 stood at 940 nM. For the same compound, the concentration at 72 h in data set [4] came to 25 µM.

In the case of `S=C(NCCOc1ccccc1)Nc1nccs1`, the IC50 in data set [1] was < 1 nM. Besides, the “Ratio CC50/IC50” value in data set [2] was >100000.

For `O=C(CCc1ccco1)Nc1nc(-c2ccccc2)cs1`, the IC50 came to 40 nM in data set [5] and 13 nM in data set [6].
